Active and inactive are the calls of the source.
Tests used:
[1] = biological target: T1, Short transient receptor potential channel 4 (Mus musculus, UniProt Q9QUQ5); assay: mouse TRPC4 channel inhibitors, dose response, cell-based, HEK293 TRPC4/mu-opioid, Fluo-4 calcium (AID 434942); assay type: functional;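 also: potency of inhibitors blocking the TRPC4 calcium response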
T1 sequence (Q9QUQ5 whole entry): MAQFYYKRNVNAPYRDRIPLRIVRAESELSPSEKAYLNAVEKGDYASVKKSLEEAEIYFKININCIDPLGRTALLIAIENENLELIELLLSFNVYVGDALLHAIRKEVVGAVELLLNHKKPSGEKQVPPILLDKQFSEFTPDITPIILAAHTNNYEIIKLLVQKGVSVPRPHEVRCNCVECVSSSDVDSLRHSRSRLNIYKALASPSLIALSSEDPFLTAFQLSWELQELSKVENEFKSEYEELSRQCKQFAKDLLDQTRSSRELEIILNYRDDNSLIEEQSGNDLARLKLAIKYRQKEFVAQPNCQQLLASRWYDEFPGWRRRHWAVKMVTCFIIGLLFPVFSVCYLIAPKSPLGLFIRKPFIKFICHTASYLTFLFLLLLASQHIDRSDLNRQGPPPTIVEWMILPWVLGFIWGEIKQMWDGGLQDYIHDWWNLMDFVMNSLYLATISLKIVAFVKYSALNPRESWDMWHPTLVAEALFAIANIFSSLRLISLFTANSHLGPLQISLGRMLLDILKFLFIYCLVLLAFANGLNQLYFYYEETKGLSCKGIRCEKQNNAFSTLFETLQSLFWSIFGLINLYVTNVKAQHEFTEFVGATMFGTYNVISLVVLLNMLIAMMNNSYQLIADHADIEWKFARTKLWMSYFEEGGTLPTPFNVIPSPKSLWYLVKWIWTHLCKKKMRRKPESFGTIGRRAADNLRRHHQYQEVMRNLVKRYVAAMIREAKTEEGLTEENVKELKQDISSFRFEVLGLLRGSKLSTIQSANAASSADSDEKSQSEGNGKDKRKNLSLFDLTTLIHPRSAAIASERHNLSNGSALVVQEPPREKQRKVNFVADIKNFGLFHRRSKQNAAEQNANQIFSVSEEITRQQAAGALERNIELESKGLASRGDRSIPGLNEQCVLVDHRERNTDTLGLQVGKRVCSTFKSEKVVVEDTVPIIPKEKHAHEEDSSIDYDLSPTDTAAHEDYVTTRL

Streptococcus = assay: Group A Streptococcus viability loss, dose response, counter-screen for streptokinase expression inhibitor project, luminescence, BacTiterGlo (AID 1915); assay type: functional, organism-based;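 also: potency for reduction of bacterial viability or growth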
[2] = HepG2 cell cytotoxicity, dose response, cytotoxicity control for Shn3 inhibitor project, CellTiter-Glo, cherry-picked (AID 624134); assay type: functional, cell-based
[3] = cytotoxicity toward NIH3T3 fibroblasts, dose response, counter-screen, cell-based, ATP luminescence, mouse fibroblasts (AID 2010); assay type: functional;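 also: cells exposed to compound for about 90 hours before reading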
[4] = control 3'UTR Renilla luciferase suppression, dose response, counter-screen for Shn3 inhibitor project, cell-based, Clone20-Shn3RL, cherry-picked (AID 624133); assay type: functional
[5] = test system: Streptococcus sp. 'group A'; assay: growth inhibition of control SK(-) GAS strain, dose response, counter-screen for streptokinase expression inhibitor project, luminescence, kanamycin, BacTiterGlo, confirmation (AID 1900); assay type: functional, organism-based
[6] = inhibitors of intracellular T. cruzi replication, confirmation, NIH3T3 host cells, beta-gal luminescence (AID 2044); assay type: functional, cell-based;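 also: intracellular parasites grown in NIH/3T3 mouse fibroblasts as host cells; luminescent beta-galactosidase reporter signal from transgenic T. cruzi replicating inside host cells; inhibitors lower the luminescence signal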
[7] = Shn3 3'UTR reporter inhibitors, dose response, cell-based, Clone20 osteoblasts, firefly luciferase, cherry-picked (AID 624132); assay type: functional;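 also: firefly luciferase luminescence from reporter carrying the Shn3 3'UTR in osteoblasts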
Streptokinase A = biological target: T2, Streptokinase A (Streptococcus pyogenes serotype M1, UniProt P10520); assay: S. pyogenes streptokinase expression inhibitors, potency, dose response, plasminogen activation absorbance, OD405 (AID 1914); assay type: functional, Streptococcus pyogenes M1 GAS;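 also: secreted streptokinase activity via plasminogen activation per viability signal from cell pellet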
T2 sequence (P10520 whole entry): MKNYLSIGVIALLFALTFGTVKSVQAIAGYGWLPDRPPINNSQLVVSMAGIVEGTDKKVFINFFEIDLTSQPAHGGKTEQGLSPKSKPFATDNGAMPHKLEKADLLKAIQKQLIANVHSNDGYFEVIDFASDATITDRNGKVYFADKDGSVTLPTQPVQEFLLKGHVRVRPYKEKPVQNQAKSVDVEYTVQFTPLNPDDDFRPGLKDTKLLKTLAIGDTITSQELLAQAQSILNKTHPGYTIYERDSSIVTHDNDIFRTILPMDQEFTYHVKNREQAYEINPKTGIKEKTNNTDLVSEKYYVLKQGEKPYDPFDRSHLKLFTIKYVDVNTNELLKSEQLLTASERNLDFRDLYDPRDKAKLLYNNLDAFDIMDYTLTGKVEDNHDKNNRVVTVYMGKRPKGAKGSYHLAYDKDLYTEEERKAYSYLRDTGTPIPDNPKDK

[8] = CRF-BP/CRF-R2 complex antagonists, dose response, cell-based, uHTS hits, 384-well (AID 651639); assay type: functional, Homo sapiens; conditions: read-out: IC50_Mean
[9] = biological target: Eukaryotic translation initiation factor 4E (Mus musculus, UniProt P63073); assay: eIF4E–eIF4G protein interaction inhibitors, dose response, biochemical, TR-FRET (AID 855); assay type: functional;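 also: potency for disrupting eIF4E binding to eIF4GI seen as loss of FRET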
Vero = Vero cell cytotoxicity, cytotoxicity control for flavivirus capping enzyme inhibitors (AID 588742); assay type: functional; conditions: Chlorocebus sabaeus
[10] = biological target: T3, Polyadenylate-binding protein 1 (Homo sapiens, UniProt P11940); assay: PABP1 MLLE–PAM2 binding inhibitor potency, dose response, biochemical, fluorescence polarization, FITC-PAM2 peptide (AID 602259); assay type: functional; conditions: read-out: IC50_Mean
Genome polyprotein = Genome polyprotein (dengue virus type 2, UniProt P29990); assay: Dengue-2 NS5 methyltransferase inhibitors, primary screen, biochemical, confirmation dose response (AID 588689); assay type: functional
[11] = biological target: T3, Polyadenylate-binding protein 1; assay: PABP1 MLLE–PAM2 interaction inhibitors, dose response, miRNA deadenylation inhibitor project, biochemical, fluorescence polarization, Cy5-PAM2 peptide, secondary (AID 602260); assay type: functional; conditions: read-out: IC50_Mean
[12] = A Cell Based Secondary Assay To Explore Cytotoxicity of Compounds that Sensitize Mycobacterium Tuberculosis to Beta-Lactam Antibiotics.; assay type: functional
[13] = biological target: T4, Corticotropin-releasing factor receptor 2/Corticotropin-releasing factor-binding protein (Homo sapiens, UniProt P24387+Q13324); assay: activators of CRF receptor 2 with binding protein – uHTS hits, confirmation (AID 602473); assay type: functional; conditions: read-out: EC50_Mean
T4 sequence (Q13324 whole entry): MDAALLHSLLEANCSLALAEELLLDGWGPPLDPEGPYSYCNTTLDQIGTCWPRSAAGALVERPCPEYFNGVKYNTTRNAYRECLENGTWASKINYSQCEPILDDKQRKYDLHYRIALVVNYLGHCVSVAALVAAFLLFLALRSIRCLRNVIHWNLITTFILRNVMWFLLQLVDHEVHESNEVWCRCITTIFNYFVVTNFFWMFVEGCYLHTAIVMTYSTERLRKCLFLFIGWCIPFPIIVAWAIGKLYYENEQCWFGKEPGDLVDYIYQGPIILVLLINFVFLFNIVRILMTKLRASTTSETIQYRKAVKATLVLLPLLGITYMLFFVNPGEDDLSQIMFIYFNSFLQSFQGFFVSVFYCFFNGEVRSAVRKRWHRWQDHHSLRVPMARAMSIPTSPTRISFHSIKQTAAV
T4 sequence (P24387 whole entry): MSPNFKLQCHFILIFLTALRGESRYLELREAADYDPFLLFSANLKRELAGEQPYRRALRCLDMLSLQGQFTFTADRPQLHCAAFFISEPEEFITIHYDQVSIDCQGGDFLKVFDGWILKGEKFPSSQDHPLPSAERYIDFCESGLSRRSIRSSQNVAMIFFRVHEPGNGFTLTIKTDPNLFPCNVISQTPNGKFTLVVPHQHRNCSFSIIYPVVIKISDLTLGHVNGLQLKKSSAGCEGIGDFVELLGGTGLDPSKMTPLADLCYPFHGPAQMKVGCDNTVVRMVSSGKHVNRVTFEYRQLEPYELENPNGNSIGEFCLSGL

[14] = biological target: T4, Corticotropin-releasing factor receptor 2/Corticotropin-releasing factor-binding protein; assay: Dose Response confirmation of uHTS hits for small molecule antagonists of the CRF-binding protein and CRF-R2 receptor complex.; assay type: functional; conditions: read-out: IC50_Mean
[15] = Luminescence Cell-Based Dose Retest to Confirm Inhibitors of Cancer Stem Cells. [Related pubchem assays (depositor defined):AID2717, AID2721]; assay type: functional; conditions: Homo sapiens
[16] = C. albicans growth with fluconazole, confirmation, fluorescence, retest (AID 2467); assay type: functional, cell-based
[17] = NIH-3T3 fibroblast cytotoxicity, dose response, cytotoxicity control, cell-based, fluorescence, Alamar Blue, secondary assay (AID 2327); assay type: functional;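 also: NIH-3T3 mouse fibroblasts cultured with fluconazole at 8 µg/mL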
[18] = biological target: Heat shock protein HSP 90-alpha (Homo sapiens, UniProt P07900); assay type: functional, organism-based
[19] = biological target: T5, Zinc finger protein mex-5 (Caenorhabditis elegans, UniProt Q9XUB2); assay: MEX-5/TCR-2 RNA interaction inhibitors, dose response, biochemical, C. elegans, fluorescence polarization (AID 1960)
T5 sequence (Q9XUB2 whole entry): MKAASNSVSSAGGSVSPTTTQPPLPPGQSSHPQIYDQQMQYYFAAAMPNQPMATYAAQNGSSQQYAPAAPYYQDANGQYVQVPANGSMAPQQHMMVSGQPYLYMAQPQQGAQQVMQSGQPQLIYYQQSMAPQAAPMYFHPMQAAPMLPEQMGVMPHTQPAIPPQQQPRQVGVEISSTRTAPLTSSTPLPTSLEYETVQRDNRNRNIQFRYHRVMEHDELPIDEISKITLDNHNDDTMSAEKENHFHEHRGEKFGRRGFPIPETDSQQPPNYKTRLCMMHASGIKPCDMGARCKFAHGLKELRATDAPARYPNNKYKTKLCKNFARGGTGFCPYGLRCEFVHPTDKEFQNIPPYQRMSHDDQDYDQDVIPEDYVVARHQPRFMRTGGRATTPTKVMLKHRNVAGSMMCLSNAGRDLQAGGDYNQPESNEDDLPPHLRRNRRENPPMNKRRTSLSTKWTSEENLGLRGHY

[20] = biological target: T6, RNA-binding protein pos-1 (Caenorhabditis elegans, UniProt G5EF15); assay: inhibitors of POS-1/mex-3 RNA binding, dose response, biochemical, fluorescence polarization (AID 1964);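 also: purified POS-1 fused to maltose binding protein made in E. coli; potency of compounds blocking POS-1 binding to fluorescent RNA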
T6 sequence (G5EF15 whole entry): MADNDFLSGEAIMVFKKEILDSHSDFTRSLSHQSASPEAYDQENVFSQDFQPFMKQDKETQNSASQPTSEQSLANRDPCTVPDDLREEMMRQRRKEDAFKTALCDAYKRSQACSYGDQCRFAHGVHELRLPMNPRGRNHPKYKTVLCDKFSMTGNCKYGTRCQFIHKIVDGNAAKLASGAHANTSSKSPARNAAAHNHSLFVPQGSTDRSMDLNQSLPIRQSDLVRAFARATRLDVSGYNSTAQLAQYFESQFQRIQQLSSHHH

CCCn1c(NC(=O)c2ccc(Cl)c(S(=O)(=O)N3CCCC3)c2)nc2ccccc21
EC50 [1]: 1.06 µM (active)
EC50 (Streptococcus): 11.6 µM (active)
AC50 [2]: 38.8 µM (active)
EC50 [3]: 6.63 µM (active)
AC50 [4]: 10.9 µM (active)
EC50 [5]: 3.14 µM (active)
EC50 [6]: 2.63 µM (active)
AC50 [7]: 8.39 µM (active)
EC50 (Streptokinase A): > 150 µM (not active)

N#CN=C(Nc1cccc(F)c1)SCc1ccccc1
IC50 [8]: > 20 µM (inactive)

COc1ccccc1NC(=S)NCCSc1ccc(Cl)cc1
IC50 [9]: > 64 µM (inactive)

COc1cc(/C=C2/C(=O)ON=C2C)ccc1OCc1cccc(F)c1
CC50 (Vero): 38.2 µM (active)
IC50 [10]: 42.6 µM (inactive)
IC50 (Genome polyprotein): 24.1 µM (active)
IC50 [11]: > 66 µM (inactive)

COc1cc(C2C(C(=O)c3ccccc3)=C(O)C(=O)N2c2ccccn2)ccc1O (centres undefined)
IC50 [9]: 50 µM (inactive)

CCCN1CCN(C(=O)CCCNC(=O)Cn2cnc3sc(C)c(C)c3c2=O)CC1
IC50 [9]: > 64 µM (inactive)

CC(C)N(Cc1nc(-c2ccccc2)no1)C(=O)COc1ccccc1
IC50 [9]: > 64 µM (inactive)

CSc1ccc(-c2nnn(CC(=O)NCc3ccccc3)n2)cc1
CC50 [12]: > 40 µM (active)

COc1ccc(CN2CCCCC2C)cc1C (centres undefined)
EC50 [13]: 2.45 µM (active)
IC50 [8]: 20 µM (active)
IC50 [14]: < 0.368 µM (active)

CN1CCN(c2ccccc2NC(=O)c2ccc(-c3ccc(Cl)c(Cl)c3)o2)CC1
CC50 [12]: 25.2 µM (active)
AC50 [15]: 4.06 µM (active)

COc1cc(NC(=O)c2cc(-c3cccnc3)nc3ccc(Br)cc23)cc(OC)c1
CC50 [12]: > 40 µM (active)

Cc1cc(CN2CCCC(C(=O)Nc3ccc(-c4nc5ccccc5[nH]4)cc3)C2)n[nH]1 (centres undefined)
EC50 [1]: 0.0003 µM (active)

OC(COC(c1ccccc1)c1ccccc1)CN1CCN(c2cccc(Cl)c2)CC1 (centres undefined)
CC50 [12]: > 40 µM (active)

CC(C)C1Nc2c(O)cc(Cl)c([N+](=O)[O-])c2C2C=CCC21 (centres undefined)
EC50 (Streptococcus): 6.36 µM (active)
EC50 [16]: 0.227 µM (active)
EC50 [17]: 21.9 µM (inconclusive)
CC50 (Vero): 27.8 µM (active)
IC50 (Genome polyprotein): 68.9 µM (active)
AC50 [18]: 8.49 µM (active)
EC50 [5]: 3.07 µM (active)
EC50 [19]: 58.5 µM (active)
EC50 (Streptokinase A): > 150 µM (not active)
EC50 [20]: > 300 µM (not active)

COc1cc(N=C(S)NCCC(c2ccccc2)c2ccccc2)c(OC)cc1Cl
IC50 [8]: > 20 µM (inactive)

CCN(CC)CCN(C(=O)c1ccccc1OC)c1nc2ccc(F)cc2s1
EC50 [1]: 2.11 µM (active)

COc1ccc(C2=NN(C(=O)c3ccccc3)C(c3ccc(OC)c(OC)c3)C2)c(O)c1 (centres undefined)
EC50 [1]: 9.44 µM (active)

Cc1ccc(OCC(COCc2ccccc2)NC(C)C)cc1 (centres undefined)
EC50 [1]: 3.76 µM (active)

CN(C)C(CNC(=O)CCc1nc2ccccc2s1)c1ccccc1 (centres undefined)
EC50 [1]: 0.0187 µM (active)

Cc1ccc(C)c(N2CCN(S(=O)(=O)c3ccc4c(c3)C(C)(C)C(=O)N4C)CC2)c1
EC50 [13]: > 53 µM (inactive)
IC50 [8]: 9.45 µM (active)
IC50 [14]: 38.6 µM (active)

Cc1ccc(/C=N/n2c(S)nnc2-c2cccc(Cl)c2)o1
EC50 [13]: > 53 µM (inactive)
IC50 [8]: > 20 µM (inactive)
IC50 [14]: < 0.368 µM (active)

CC(C)=CCC/C(C)=C/C=N/NC(=O)c1ccc([N+](=O)[O-])cc1
CC50 [12]: > 40 µM (active)

From ChEMBL document CHEMBL1201862, “PubChem BioAssay data set” (2004)
